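Cultured in 96-well plates, cells were exposed to test compound for 48 hours across five concentrations. The concentration for full growth arrest is given as TGI.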

For twelve molecules, TGI results are on record in PubChem BioAssay (NCI).

Common to all, as to experiment: NCI tumour cell line growth inhibition, 48 h
For test [1], the system named is RXF 393 renal.
For test [2], the system named is OVCAR-3 ovarian.
In test [3] the test system is T-47D breast.
Test [4] relates to SF-295 CNS.
The subject of test [5] is NCI-H522 lung.
For test [6], the system named is HT29 colon.
Test [7] has as its system SW-620 colon.
Test [8] concerns SN12C renal.
In test [9] the test system is NCI/ADR-RES ovarian.
In test [10] the test system is NCI-H460 lung.
The subject of test [11] is 786-0 renal.
Test [12] has as its system HOP-92 NSCLC.
The test system of test [13] is HL-60(TB) leukemia.
Test [14] deals with KM12 colon.
Test [15] deals with OVCAR-8 ovarian.
Test [16] deals with SK-MEL-28 melanoma.
Test [17] concerns NCI-H23 lung.
Test [18] relates to SF-268 CNS.
Test [19] relates to SNB-75 CNS.

Take `COc1cc2cc(C(=O)Nc3cc4n(n3)-c3ccccc3C4)[nH]c2c(OC)c1OC`: the TGI in test [1] amounted to 50 µM; in test [2], 11.8 µM; in test [3], 2.39 µM; in test [4], 11.6 µM; in test [5], 4.13 µM; in test [6], 25.5 µM. Further, the TGI in [7] stood at 19.1 µM; in test [8] it was 25.6 µM; in test [9], 3.86 µM; in [10] it was 7.1 µM; in test [11] it was 17.8 µM; in [12], 16.6 µM. For the same molecule, the TGI in [13] turned out to be 6.1 µM; in test [14] it was 7.83 µM; in test [15], 3.78 µM; in test [16], 9.66 µM; in test [17] it was 10.5 µM; in test [18], 15.1 µM. The molecule also had a TGI in test [19] of 13.9 µM.
In the case of `CCC1CCN=C(NS(=O)(=O)c2cc(C)c(Cl)cc2S)N1` (stereo not drawn), the TGI in [1] was > 100 µM; in [3], 98.5 µM; in test [5] it was 76.9 µM; in test [6], 88.9 µM; in test [7], 90.3 µM; in test [8] it was > 100 µM. The TGI in test [9] was > 100 µM; in [10], > 100 µM; in [11], 97.9 µM; in [12], > 100 µM; in test [13], 82.5 µM; in test [15], 44.6 µM. Also, the TGI in [16], in test [18] and in test [19] was > 100 µM throughout.
For the molecule `COc1cc(/C=N\c2nc(-c3ccc(NS(=O)(=O)c4ccc(Cl)c(OC)c4)cc3)cs2)ccc1O`, the TGI is 80.8 µM in [1]; > 100 µM in test [2]; 59.1 µM in test [3]; > 100 µM in test [4]; 60.9 µM in test [5]; > 100 µM in [6]. The TGI in [7] is > 100 µM; in [8] it was > 100 µM; in [9], > 100 µM; in [11], > 100 µM; in [12], > 100 µM; in test [13], 74 µM. Moreover, the TGI in test [14] was > 100 µM; in test [15] it was > 100 µM; in test [16], > 100 µM; in [17], 88.8 µM; in test [18], > 100 µM; in test [19], > 100 µM.
For the molecule `CN(C)CCCSc1nc2c(c(=N)n1-c1ccccc1)c(=S)n(-c1ccccc1)c(=S)n2-c1ccccc1`, the TGI came to 3.06 µM in test [1]; 3.12 µM in test [2]; 4.62 µM in [3]; 10.6 µM in test [4]; 3.42 µM in test [5]; 3.65 µM in test [7]. The TGI in test [8] was determined as 3.18 µM; in test [9] it was 7.38 µM; in test [10], 3.24 µM; in test [11], 2.66 µM; in [12] it was 3.24 µM; in [13], 1.75 µM. Moreover, the TGI in test [14] is 3.5 µM; in test [15] it was 3.2 µM; in [16], 3.88 µM; in test [17], 4.45 µM; in [18] it was 3.33 µM; in [19] it was 3.05 µM.
On to `CC(=O)OCC1OC(n2c3c(cc(C#N)c2=S)CCC3)C(OC(C)=O)C(OC(C)=O)C1OC(C)=O` (stereo not drawn), for which the TGI in test [1], in test [3], in test [4], in [5], in test [6] and in [7] was > 100 µM throughout. The TGI in [8], in test [9], in test [10], in test [11], in [12] and in [13] was > 100 µM in each case. In addition, the TGI in [14], in [15], in test [16], in test [17], in test [18] and in test [19] was > 100 µM throughout.
As for `C=CCN1C[C@H](C)N([C@@H](c2ccc(C(=O)N3CCCCC3)cc2)c2cccc(OC)c2)C[C@H]1C`, the TGI in [1] is > 100 µM; in [2] it was > 100 µM; in [3], 76 µM; in [4], > 100 µM; in [5], 55 µM; in test [6], > 100 µM. The TGI in test [8] is > 100 µM; in test [9] it was > 100 µM; in [10] it was > 100 µM; in test [11] it was > 100 µM; in test [12], > 100 µM; in [13], 21.5 µM. Moreover, the TGI in test [14], in test [15], in test [17], in [18] and in [19] was > 100 µM each time.
In the case of `CCOC(=O)C1(N)CCc2[nH][nH]c(=O)c2C1` (stereo not drawn), the TGI in [2], in [3], in [4], in test [5], in test [6] and in test [7] was > 100 µM each time. The TGI in test [9], in test [10], in test [11], in test [12], in test [13] and in test [14] was > 100 µM throughout. Also, the TGI in [15], in test [16], in test [17] and in [19] was > 100 µM each time.
Turning to `O=c1/c(=C/c2ccc([N+](=O)[O-])o2)sc2n1[C@@H](c1ccc(Cl)cc1)C=C(c1cc(F)c(Cl)cc1Cl)N=2`, the TGI in test [1] was 28.5 µM; in test [3] it was 52.7 µM; in test [4] it was 72.4 µM; in [5], 49.2 µM; in test [6] it was 23.2 µM; in test [7], > 100 µM. For the same molecule, the TGI in test [8] was 19.5 µM; in test [9], > 100 µM; in [10], 24.3 µM; in [11], 20.7 µM; in [12], 28.5 µM; in [13], 49.2 µM. The TGI was > 100 µM in test [14]; 40.8 µM in test [15]; > 100 µM in test [16]; 39.4 µM in test [17]; 33.4 µM in [18]; > 100 µM in [19].
Consider `Clc1ccc(C(Cc2cccc(Cl)c2)c2c(Cl)nc(N3CCNCC3)nc2Cl)cc1` (stereo not drawn), for which the TGI in test [2] is 29.2 µM; in [3], 31 µM; in [4] it was 31 µM; in [5], 28 µM; in [6], > 100 µM; in [7], 30.1 µM. Also, the TGI in test [9] turned out to be 36.2 µM; in test [10], 30.9 µM; in test [11] it was 27.5 µM; in [12] it was 27.1 µM; in test [13] it was 23.1 µM; in test [14], 26.8 µM. In addition, the TGI in test [15] worked out at 38.4 µM; in test [16], 33.6 µM; in [17], 34.1 µM; in test [19], 26.7 µM.
On to `COC(=O)[C@H](Cc1c[nH]c2ccccc12)NP(=O)(O)OC[C@H]1O[C@@H](n2cc(C)c(=O)[nH]c2=O)C[C@@H]1N=[N+]=[N-]`, for which the TGI in [1], in test [2], in test [3], in [4], in test [5] and in test [6] was > 100 µM in each case. For the same molecule, the TGI in [7], in [8], in test [9], in test [10], in test [11] and in test [12] was > 100 µM in each case. The TGI in test [13], in test [14], in [15], in [17], in test [18] and in [19] was > 100 µM throughout.
Regarding `Cc1cc(C)c(O)c(CN2CCN(C(C)C)CCN(C(C)C)CC2)c1`, the TGI in test [1] was 45 µM; in [2] it was > 100 µM; in [3], 61 µM; in test [4] it was 85.3 µM; in [5], 68 µM; in test [7], > 100 µM. Besides, the TGI in [8] was 83.9 µM; in [9] it was > 100 µM; in test [10], > 100 µM; in test [11], > 100 µM; in [12], 65.2 µM; in [13], 71 µM. For the same molecule, the TGI in test [14] was 46.5 µM; in [15], 94.9 µM; in test [16], 72.8 µM; in test [18], > 100 µM; in test [19] it was > 100 µM.
As to `O=C1/C(=C/c2ccco2)N=C2Sc3c(nc[nH]c3=O)N12`, the TGI in test [1], in test [2], in test [3], in [4], in [5] and in test [6] was > 100 µM each time. The TGI in [7], in [8], in [9], in test [11], in [12] and in test [13] was > 100 µM in each case. For the same molecule, the TGI in test [14], in [15], in test [16], in test [17], in test [18] and in test [19] was > 100 µM throughout.
